One experiment deals with IKZF2 (Homo sapiens (Human), UniProt Q96SW2+Q9UKS7). Briefly: In vitro IKZF2 HiBit Assay (HEK293T Flp-in-HiBiT cells). Conditions: HEK293T Flp-in-HiBiT cells, 6 hrs incubation; for DC50: read-out: IKZF2 HiBit DC50; for Dmax: HEK-293T, read-out: IKZF2 HiBit Dmax (%). Format: cell-based. A digest of the protocol: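 HEK293T Flp-in cells carrying an endogenous N-terminal HiBiT tag on IKZF2 were exposed to compound for 6 h at 0.1% DMSO. The dilution series was 11 doses at 3-fold, diluted from 1 mM. Nano-Glo HiBiT lytic luminescence, normalized to DMSO, gave DC50 for 50% degradation and Dmax across the concentration range, both reported in letter bins.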

Another experiment concerns the target IKZF1 (Homo sapiens (Human), UniProt Q13422+Q96SW2). Kind of experiment: In vitro IKZF1 HiBit Assay (HEK293T Flp-in-HiBiT-IKZF1 stable cell line). Format: cell-based. Conditions: HEK293T Flp-in-HiBiT-IKZF1 stable cell line, 6 hrs incubation; for DC50: read-out: IKZF1 HiBit DC50; for Dmax: HEK-293T, read-out: IKZF1 HiBit Dmax (%). The method, boiled down:
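HEK293T Flp-in cells carrying N-terminal HiBiT-tagged IKZF1 were exposed to compound (0.1% DMSO) for 6 h at 3000 cells/well. HiBiT luminescence was read after lytic LgBiT detection. DC50 and Dmax were taken from DMSO-normalized dose-response curves.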
(In general: HiBiT is a short tag that completes a luciferase, so light tracks the accessible tagged protein.)

In the next experiment the target is CRBN/DDB1 (Homo sapiens (Human), UniProt Q96SW2). Kind of experiment: IC50 measurements for binding to CRBN/DDB1 (HTRF). The following applies: His tagged CRBN+DDB, Cy5-labeled Thalidomide probe, one hour. A digest of the protocol:
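HTRF competition binding with 2 nM His-tagged CRBN-DDB1 complex, 60 nM Cy5-thalidomide probe and 0.4 nM anti-His Tb cryptate in 50 mM HEPES pH 7.5, 1 mM TCEP, 0.01% Brij-35, 50 mM NaCl, 0.1% BSA. Read after 1 h at room temperature; IC50 from four-parameter dose-response fit.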

Molecules are shown by their SMILES.

Sequence of IKZF2 (Q9UKS7 whole entry): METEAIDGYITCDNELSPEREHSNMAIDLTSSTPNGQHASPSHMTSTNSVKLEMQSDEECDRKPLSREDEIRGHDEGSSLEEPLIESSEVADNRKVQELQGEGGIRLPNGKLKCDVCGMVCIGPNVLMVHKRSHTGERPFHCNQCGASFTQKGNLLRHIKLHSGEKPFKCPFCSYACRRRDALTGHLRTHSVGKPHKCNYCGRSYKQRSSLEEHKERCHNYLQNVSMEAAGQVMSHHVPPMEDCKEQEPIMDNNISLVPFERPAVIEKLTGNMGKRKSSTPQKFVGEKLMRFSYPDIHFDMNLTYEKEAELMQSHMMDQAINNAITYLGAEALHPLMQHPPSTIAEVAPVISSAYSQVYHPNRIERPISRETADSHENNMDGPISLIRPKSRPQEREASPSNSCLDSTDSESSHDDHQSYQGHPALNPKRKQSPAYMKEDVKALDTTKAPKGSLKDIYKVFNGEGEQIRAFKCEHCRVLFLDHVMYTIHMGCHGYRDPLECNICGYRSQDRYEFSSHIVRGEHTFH
Sequence of IKZF2 (Q96SW2 whole entry): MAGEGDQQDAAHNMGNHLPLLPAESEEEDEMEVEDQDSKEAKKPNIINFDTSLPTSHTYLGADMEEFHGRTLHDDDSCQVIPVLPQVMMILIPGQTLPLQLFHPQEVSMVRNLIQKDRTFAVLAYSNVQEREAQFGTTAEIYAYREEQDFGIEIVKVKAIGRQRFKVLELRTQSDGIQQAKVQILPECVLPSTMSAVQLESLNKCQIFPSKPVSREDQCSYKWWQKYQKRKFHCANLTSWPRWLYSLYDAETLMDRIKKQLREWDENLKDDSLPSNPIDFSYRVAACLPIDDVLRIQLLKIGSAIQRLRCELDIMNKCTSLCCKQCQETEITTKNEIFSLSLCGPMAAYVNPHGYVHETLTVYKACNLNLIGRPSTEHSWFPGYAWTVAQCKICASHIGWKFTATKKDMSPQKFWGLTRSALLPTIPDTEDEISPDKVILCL
Sequence of IKZF2 (Q16531 2-1140 partner): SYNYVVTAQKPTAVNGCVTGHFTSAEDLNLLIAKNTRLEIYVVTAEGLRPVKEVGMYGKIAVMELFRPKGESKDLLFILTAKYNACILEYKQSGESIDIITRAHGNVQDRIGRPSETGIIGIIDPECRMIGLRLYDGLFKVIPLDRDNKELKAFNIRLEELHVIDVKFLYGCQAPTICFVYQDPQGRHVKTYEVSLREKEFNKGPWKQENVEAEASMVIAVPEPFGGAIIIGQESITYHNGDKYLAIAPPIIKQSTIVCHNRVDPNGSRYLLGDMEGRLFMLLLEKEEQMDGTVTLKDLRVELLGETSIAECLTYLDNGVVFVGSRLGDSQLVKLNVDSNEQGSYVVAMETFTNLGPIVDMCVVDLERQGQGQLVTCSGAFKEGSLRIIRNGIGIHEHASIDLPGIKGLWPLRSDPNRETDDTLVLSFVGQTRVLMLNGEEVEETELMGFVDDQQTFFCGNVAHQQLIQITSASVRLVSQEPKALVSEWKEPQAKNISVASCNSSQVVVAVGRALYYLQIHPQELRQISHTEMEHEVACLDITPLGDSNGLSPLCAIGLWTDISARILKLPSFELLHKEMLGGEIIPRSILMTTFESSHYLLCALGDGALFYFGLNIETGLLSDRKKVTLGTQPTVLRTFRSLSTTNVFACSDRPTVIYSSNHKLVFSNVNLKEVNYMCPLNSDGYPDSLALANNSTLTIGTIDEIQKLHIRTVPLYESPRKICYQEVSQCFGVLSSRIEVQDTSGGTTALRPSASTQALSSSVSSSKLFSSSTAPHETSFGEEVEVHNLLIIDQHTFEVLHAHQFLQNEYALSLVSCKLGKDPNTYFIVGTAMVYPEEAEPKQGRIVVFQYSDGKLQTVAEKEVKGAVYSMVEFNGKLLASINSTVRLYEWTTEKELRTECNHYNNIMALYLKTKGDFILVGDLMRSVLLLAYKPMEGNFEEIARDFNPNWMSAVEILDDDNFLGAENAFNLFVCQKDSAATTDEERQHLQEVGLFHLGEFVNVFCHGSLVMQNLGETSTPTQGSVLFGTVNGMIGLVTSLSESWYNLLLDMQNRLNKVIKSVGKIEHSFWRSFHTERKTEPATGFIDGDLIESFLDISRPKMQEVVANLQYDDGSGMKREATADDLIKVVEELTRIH
Sequence of IKZF1 (Q13422 whole entry): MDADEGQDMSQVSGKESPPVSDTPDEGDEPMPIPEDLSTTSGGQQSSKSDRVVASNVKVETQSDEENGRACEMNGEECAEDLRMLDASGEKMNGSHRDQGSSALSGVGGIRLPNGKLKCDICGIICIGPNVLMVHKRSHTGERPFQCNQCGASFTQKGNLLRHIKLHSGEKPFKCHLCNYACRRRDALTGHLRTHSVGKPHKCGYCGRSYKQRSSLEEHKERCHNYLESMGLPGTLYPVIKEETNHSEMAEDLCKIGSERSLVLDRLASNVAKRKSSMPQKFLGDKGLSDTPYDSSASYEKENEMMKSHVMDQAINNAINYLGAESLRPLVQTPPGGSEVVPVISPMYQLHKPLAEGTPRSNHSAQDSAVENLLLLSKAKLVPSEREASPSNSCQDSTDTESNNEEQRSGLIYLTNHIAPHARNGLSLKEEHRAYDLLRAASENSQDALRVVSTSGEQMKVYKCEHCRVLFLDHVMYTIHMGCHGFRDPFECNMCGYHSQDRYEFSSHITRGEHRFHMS
Sequence of IKZF1 (Q96SW2 whole entry): as the sequence (Q96SW2 whole entry) above
Sequence of IKZF1 (Q16531 2-1140 partner): as the sequence (Q16531 2-1140 partner) above
Sequence of CRBN/DDB1 (Q96SW2 whole entry, species assumed): as the sequence (Q96SW2 whole entry) above
Sequence of CRBN/DDB1 (Q16531 whole entry partner, species assumed): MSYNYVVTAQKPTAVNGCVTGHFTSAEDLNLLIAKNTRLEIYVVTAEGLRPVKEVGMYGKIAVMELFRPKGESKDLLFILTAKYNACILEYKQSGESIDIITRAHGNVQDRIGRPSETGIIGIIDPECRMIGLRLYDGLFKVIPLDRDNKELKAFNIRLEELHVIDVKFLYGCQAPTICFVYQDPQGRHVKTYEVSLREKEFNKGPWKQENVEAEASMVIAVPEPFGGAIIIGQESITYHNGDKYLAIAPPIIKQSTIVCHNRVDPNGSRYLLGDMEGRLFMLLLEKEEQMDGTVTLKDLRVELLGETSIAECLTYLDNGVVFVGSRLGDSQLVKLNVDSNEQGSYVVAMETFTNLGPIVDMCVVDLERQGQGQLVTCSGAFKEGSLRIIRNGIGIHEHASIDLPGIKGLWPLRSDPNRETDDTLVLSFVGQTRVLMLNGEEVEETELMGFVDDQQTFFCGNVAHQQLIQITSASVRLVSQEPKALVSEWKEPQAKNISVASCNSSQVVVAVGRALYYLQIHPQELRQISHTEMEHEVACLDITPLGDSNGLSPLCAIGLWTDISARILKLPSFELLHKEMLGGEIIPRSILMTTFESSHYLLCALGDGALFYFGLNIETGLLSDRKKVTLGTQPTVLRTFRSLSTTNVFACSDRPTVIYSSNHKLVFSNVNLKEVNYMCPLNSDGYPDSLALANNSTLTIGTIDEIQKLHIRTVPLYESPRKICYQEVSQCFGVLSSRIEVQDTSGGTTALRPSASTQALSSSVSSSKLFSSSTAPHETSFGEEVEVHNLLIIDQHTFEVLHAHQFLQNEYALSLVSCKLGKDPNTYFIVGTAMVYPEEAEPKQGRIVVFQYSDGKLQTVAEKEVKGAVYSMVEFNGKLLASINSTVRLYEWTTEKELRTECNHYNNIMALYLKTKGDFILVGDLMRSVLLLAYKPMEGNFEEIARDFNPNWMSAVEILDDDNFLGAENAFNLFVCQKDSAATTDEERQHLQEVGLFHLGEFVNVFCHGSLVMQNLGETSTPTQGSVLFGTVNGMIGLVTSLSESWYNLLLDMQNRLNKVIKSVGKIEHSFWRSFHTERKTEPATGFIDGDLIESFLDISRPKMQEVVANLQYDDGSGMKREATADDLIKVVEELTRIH

Broadly, the IC50 is the concentration that inhibits the measured activity by half. A lower IC50 goes with inhibition by little substance. For `Cn1ccc2c(CN3CC4CCC(C4)C3)cc(-c3ccc4c(c3)CN(C3CCC(=O)NC3=O)C4=O)nc21` (stereo not shown) [Example 308, 3-(5-(4-((3-azabicyclo[3.2.1]octan-3-yl)methyl)-1-methyl-1H-pyrrolo[2,3-b]pyridin-6-yl)-1-oxoisoindolin-2-yl) piperidine-2,6-dione], at IKZF2, the DC50 is 1 to 10 nM and the Dmax was greater than 80%. Further, at IKZF1, the DC50 lay in the range of 1 to 10 nM and the Dmax was 20 to 40%. The compound also gave an IC50 at CRBN/DDB1 of 100 to 500 nM.
In the case of `Cn1ccc2c(CN3CCC4(CC3)COC4)cc(-c3ccc4c(c3)CN(C3CCC(=O)NC3=O)C4=O)nc21` (stereo not shown) [Example 73, 3-(5-(4-((2-oxa-7-azaspiro[3.5]nonan-7-yl)methyl)-1-methyl-1H-pyrrolo[2,3-b]pyridin-6-yl)-1-oxoisoindolin-2-yl) piperidine-2,6-dione], the DC50 at IKZF2 was 1 to 10 nM; on IKZF1, greater than 10000 nM. For the same compound, the figures for the Dmax on IKZF2 and at IKZF1 were greater than 80% and 20 to 40%, respectively. Moreover, the IC50 on CRBN/DDB1 was 100 to 500 nM.
In the case of `Cn1ccc2c(CN3CCC(n4ccnc4)CC3)cc(-c3ccc4c(c3)CN(C3CCC(=O)NC3=O)C4=O)nc21` (stereo not shown) [Example 115, 3-(5-(4-((4-(1HIimidazol-1-yl)piperidin-1-yl)methyl)-1-methyl-1H-pyrrolo[2,3-b]pyridin-6-yl)-1-oxoisoindolin-2-yl) piperidine-2,6-dione], at IKZF2, the DC50 was in the range of 10 to 100 nM and the Dmax lay within 60 to 80%. Moreover, at IKZF1, the DC50 is greater than 10000 nM and the Dmax is less than 20%. On CRBN/DDB1, this compound yielded an IC50 of 500 to 1000 nM.
On the same counts, the results for `O=C1CCC(N2Cc3cc(-c4cc(CN5CCCC5)c5nc[nH]c5n4)ccc3C2=O)C(=O)N1` (stereo not shown) [Example 145, 3-(1-oxo-5-(7-(pyrrolidin-1-ylmethyl)-3H-imidazo[4,5-b]pyridin-5-yl)isoindolin-2-yl) piperidine-2,6-dione] are 100 to 1000 nM, less than 20%, greater than 10000 nM, less than 20% and 1000 to 5000 nM.
With `COCC1CCCN1Cc1cc(-c2ccc3c(c2)CN(C2CCC(=O)NC2=O)C3=O)nc2c1ccn2C` (stereo not shown) [Example 106, 3-(5-(4-((2-(methoxymethyl)pyrrolidin-1-yl)methyl)-1-methyl-1H-pyrrolo[2,3-b]pyridin-6-yl)-1-oxoisoindolin-2-yl) piperidine-2,6-dione], at IKZF2, the DC50 was 1 to 10 nM and the Dmax was greater than 80%. Further, on IKZF1, the DC50 was greater than 10000 nM and the Dmax is less than 20%. The compound also showed an IC50 at CRBN/DDB1 of 100 to 500 nM.
On to `Cn1ccc2c(CN3CCSCC3)cc(-c3ccc4c(c3)CN(C3CCC(=O)NC3=O)C4=O)nc21` (stereo not shown) [Example 62, 3-(5-(1-methyl-4-(thiomorpholinomethyl)-1H-pyrrolo[2,3-b]pyridin-6-yl)-1-oxoisoindolin-2-yl) piperidine-2,6-dione], for which, at IKZF2, the DC50 lay in the range of 1 to 10 nM and the Dmax is greater than 80%. Further, at IKZF1, the DC50 is greater than 10000 nM and the Dmax was less than 20%. Moreover, the IC50 at CRBN/DDB1 is 100 to 500 nM.
Regarding `COCC1CCN(Cc2cc(-c3ccc4c(c3)CN(C3CCC(=O)NC3=O)C4=O)nc3c2ccn3C)C1` (stereo not shown) [Example 109, 3-(5-(4-((3-(methoxymethyl)pyrrolidin-1-yl)methyl)-1-methyl-1H-pyrrolo[2,3-b]pyridin-6-yl)-1-oxoisoindolin-2-yl) piperidine-2,6-dione], on IKZF2, the DC50 is less than 1 nM and the Dmax was greater than 80%. Moreover, on IKZF1, the DC50 lay in the range of 1 to 10 nM and the Dmax was in the range of 20 to 40%. Further, on CRBN/DDB1, the IC50 was in the range of 100 to 500 nM.
With `CC(C)Oc1n[nH]c2c(CN3CCCC3)cc(-c3ccc4c(c3)CN(C3CCC(=O)NC3=O)C4=O)nc12` (stereo not shown) [Example 238, 3-(5-(3-isopropoxy-7-(pyrrolidin-1-ylmethyl)-1H-pyrazolo[4,3-b]pyridin-5-yl)-1-oxoisoindolin-2-yl) piperidine-2,6-dione], on IKZF2, the DC50 is less than 1 nM and the Dmax is 60 to 80%. On IKZF1, the DC50 was greater than 10000 nM and the Dmax is less than 20%. Moreover, the IC50 on CRBN/DDB1 was 1000 to 5000 nM.
On the same counts, the results for `CC(C)n1nc(N)c2nc(-c3ccc4c(c3)CN(C3CCC(=O)NC3=O)C4=O)cc(CN3CCCC3)c21` (stereo not shown) [Example 177, 3-(5-(3-amino-1-isopropyl-7-(pyrrolidin-1-ylmethyl)-1H-pyrazolo[4,3-b]pyridin-5-yl)-1-oxoisoindolin-2-yl) piperidine-2,6-dione] are 1 to 10 nM, 60 to 80%, 10 to 100 nM, 20 to 40% and 500 to 1000 nM.
On the same counts, the results for `Cn1ccc2c(CN3CCC(S(C)(=O)=O)CC3)cc(-c3ccc4c(c3)CN(C3CCC(=O)NC3=O)C4=O)nc21` (stereo not shown) [Example 300, 3-(5-(1-methyl-4-((4-(methylsulfonyl)piperidin-1-yl)methyl)-1H-pyrrolo[2,3-b]pyridin-6-yl)-1-oxoisoindolin-2-yl) piperidine-2,6-dione] are 10 to 100 nM, 60 to 80%, greater than 10000 nM, less than 20% and 1000 to 5000 nM.
Turning to `Cn1ccc2c(CN3CCCC3)cc(-c3ccc4c(c3F)CN(C3CCC(=O)NC3=O)C4=O)nc21` (stereo not shown) [Example 75, 3-(4-fluoro-5-(1-methyl-4-(pyrrolidin-1-ylmethyl)-1H-pyrrolo[2,3-b]pyridin-6-yl)-1-oxoisoindolin-2-yl) piperidine-2,6-dione], on IKZF2, the DC50 is less than 1 nM and the Dmax was greater than 80%. Further, on IKZF1, the DC50 was greater than 10000 nM and the Dmax was 20 to 40%. This compound also displayed an IC50 on CRBN/DDB1 of 100 to 500 nM.
On the same counts, the results for `O=C1CCC(N2Cc3cc(-c4cc(CN5CCCC5)c5ccn(CCO)c5n4)ccc3C2=O)C(=O)N1` (stereo not shown) [Example 131, 3-(5-(1-(2-hydroxyethyl)-4-(pyrrolidin-1-ylmethyl)-1H-pyrrolo[2,3-b]pyridin-6-yl)-1-oxoisoindolin-2-yl) piperidine-2,6-dione] are 10 to 100 nM, 60 to 80%, greater than 10000 nM, less than 20% and 1000 to 5000 nM.
For `O=C1CCC(N2Cc3cc(-c4cc(CN5CCCC5)c5[nH]nc(NC6COC6)c5n4)ccc3C2=O)C(=O)N1` (stereo not shown) [Example 204, 3-(5-(3-(oxetan-3-ylamino)-7-(pyrrolidin-1-ylmethyl)-1H-pyrazolo[4,3-b]pyridin-5-yl)-1-oxoisoindolin-2-yl) piperidine-2,6-dione], on IKZF2, the DC50 lay within 1000 to 10000 nM and the Dmax was less than 20%. Further, at IKZF1, the DC50 is greater than 10000 nM and the Dmax is less than 20%. In addition, on CRBN/DDB1, the IC50 lay in the range of 1000 to 5000 nM.
As for `Cn1ccc2c(CN3CC4CC4C3)cc(-c3ccc4c(c3)CN(C3CCC(=O)NC3=O)C4=O)nc21` (stereo not shown) [Example 66, 3-(5-(4-((3-azabicyclo[3.1.0]hexan-3-yl)methyl)-1-methyl-1H-pyrrolo[2,3-b]pyridin-6-yl)-1-oxoisoindolin-2-yl) piperidine-2,6-dione], at IKZF2, the DC50 was less than 1 nM and the Dmax is greater than 80%. For the same compound, at IKZF1, the DC50 was greater than 10000 nM and the Dmax lay in the range of 20 to 40%. Also, the IC50 at CRBN/DDB1 was in the range of 100 to 500 nM.
The corresponding values for `CC(C)n1ccc2c(CN3CCCC3)cc(-c3ccc4c(c3)CN(C3CCC(=O)NC3=O)C4=O)nc21` (stereo not shown) [Example 299, 3-(5-(1-isopropyl-4-(pyrrolidin-1-ylmethyl)-1H-pyrrolo[2,3-b]pyridin-6-yl)-1-oxoisoindolin-2-yl) piperidine-2,6-dione] are 1 to 10 nM, 60 to 80%, greater than 10000 nM, less than 20% and 500 to 1000 nM.
As for `Cn1ccc2c(CN3CCC(n4cccn4)CC3)cc(-c3ccc4c(c3)CN(C3CCC(=O)NC3=O)C4=O)nc21` (stereo not shown) [Example 94, 3-(5-(4-((4-(1H-pyrazol-1-yl)piperidin-1-yl)methyl)-1-methyl-1H-pyrrolo[2,3-b]pyridin-6-yl)-1-oxoisoindolin-2-yl) piperidine-2,6-dione], at IKZF2, the DC50 lay within 1 to 10 nM and the Dmax was 60 to 80%. Besides, on IKZF1, the DC50 is greater than 10000 nM and the Dmax was less than 20%. This compound also showed an IC50 on CRBN/DDB1 of less than 100 nM.
On to `Nc1n[nH]c2c(CN3CCC(O)C3)cc(-c3ccc4c(c3)CN(C3CCC(=O)NC3=O)C4=O)nc12` (stereo not shown) [Example 196, 3-(5-(3-amino-7-((3-hydroxypyrrolidin-1-yl)methyl)-1H-pyrazolo[4,3-b]pyridin-5-yl)-1-oxoisoindolin-2-yl) piperidine-2,6-dione], for which, on IKZF2, the DC50 is 100 to 1000 nM and the Dmax was in the range of 40 to 60%. Also, at IKZF1, the DC50 is greater than 10000 nM and the Dmax is less than 20%. Moreover, the half-maximal inhibitory concentration (IC50) on CRBN/DDB1 lay in the range of 1000 to 5000 nM.

These data come from patent US20250214991A1 (Oncopia Therapeutics, Inc. d/b/a/ SK Life Science Labs, priority 2022, published 2025).
